{"source": "patent US20070021351A1", "about": "“Liver/plasma concentration ratio for dosing hepatitis C virus protease inhibitor” (Schering Corporation, priority 2005, published 2007)", "key": {"[1]": {"experiment": "Example 2: food-effect crossover study, 600 mg single dose, healthy adult subjects", "assay_type": "in vivo, human", "protocol": "This was a randomized, open-label, single-dose, two-treatment (fed or fasted), two-period, two-sequence crossover study of the effect of food on the bioavailability of compound of Formula Ia in 23 healthy adult male and female subjects. The primary pharmacokinetic parameters were AUC(I) and Cmax for compound of Formula Ia. The study included a 7-day wash-out period between treatment periods.\nSubjects were confined at the study site at least 14 hours prior to each treatment (Day-1). On the morning of Day 1, following a 10-hour overnight fast, subjects were randomized to receive in a particular order Treatment A and Treatment B: • Treatment A: compound of Formula Ia 600 mg (6×100 mg capsules) PO following an overnight fast. • Treatment B: compound of Formula Ia 600 mg (6×100 mg capsules) PO within 20 minutes following the completion of a standard high-fat breakfast. There was a 7-day wash-out period between receiving treatments.\nSubjects receiving Treatment A received a formulation of compound of Formula Ia comprised of compound of Formula Ia and a pharmaceutically acceptable carrier, such as microcrystalline cellulose, while continuing to fast, while subjects randomized to Treatment B consumed a standardized high-fat meal prior to compound administration (within 20 minutes prior to the compound administration). The capsules along with approximately 240 mL of water were swallowed whole, not chewed or crushed. […] Water was permitted as desired except for 1 hour before and after compound administration. A washout period of at least 7 days separated the two treatment periods. Upon return to the clinic, subjects underwent the same procedures as the first period and continued the randomization sequence (subjects who received compound of Formula Ia fasted in Period 1 and then received compound of Formula Ia under fed conditions in Period 2, and vice versa).\nBlood samples (7 mL each) for the determination of compound of Formula Ia levels were drawn immediately prior to dosing (0 hour), and at 0.5, 1, 1.5, 2, 2.5, 3, 4, 5, 6, 8, 12, 24, 36, and 48 hours after dosing. The blood samples were collected into tubes containing EDTA. The samples were centrifuged at 1500 g for 10 minutes to obtain plasma and the plasma samples were frozen at −20° C. and maintained in the frozen state until assayed.\nPlasma concentrations of compound of Formula Ia were determined using a validated liquid chromatography tandem mass spectrometry (LC-MS/MS) method. The assay lower limit of quantitation (LLOQ) was 0.50 ng/mL and the method was validated over the concentration range of 0.50 to 1000 ng/mL.\nThe mean and percent coefficient of variation (% CV) were calculated for plasma concentrations of compound of Formula Ia at each time point. Concentration values less than the assay LLOQ were reported as, and set to zero in the tables and calculations. The plasma concentration-time data for compound of Formula Ia were subjected to pharmacokinetic analysis by noncompartmental methods using WinNonlin software. Nominal sampling times were used for pharmacokinetic analysis, since none of the pharmacokinetic sampling time deviations were >10% of the nominal times. For each subject, the following pharmacokinetic parameters were determined for compound of Formula Ia: maximum plasma concentration (Cmax), time of maximum observed plasma concentration (Tmax), the final quantifiable sampling time (tf), area under the plasma concentration-time curve from time 0 to tf (AUC[tf]), AUC(I) (AUC[tf]+C[tf]estimated/K) and Vd/F. The K and C(tf)estimated are defined as terminal elimination rate constant and estimated concentration at final quantifiable sample, respectively. Terminal phase half-life (t½=In2/K) and apparent clearance (CL/F=Dose/AUC[I]) were also determined. Cmax, Tmax and tf were the observed values. […]"}, "[2]": {"test_system": "HCV", "experiment": "Suppression of virus in serum after about two weeks of administration", "assay_type": "in vivo", "settings": "threshold of detectability"}, "[3]": {"test_system": "HCV-RNA viral load (genotype 1)", "experiment": "Example 3: pharmacodynamics, effect on HCV-RNA viral load", "assay_type": "in vivo", "settings": "400 mg TID", "protocol": "Multiple escalating doses of compound of Formula Ia were administered for 14 days to HCV positive subjects who were genotype 1 Interferon-a (with or without ribavirin) non responders. In a randomized, placebo controlled, third party blind study, multiple doses of 100 mg BID, 200 mg BID, 400 mg BID, 400 mg TID, and 600 mg TID of compound of Formula Ia or placebo in a 3:1 ratio with or without food were evaluated. […]\nSerial HCV-RNA data were evaluated for antiviral activity and for the change from baseline in the serum HCV RNA levels."}, "[4]": {"experiment": "Liver versus plasma concentration in monkeys (non-GLP assay)", "assay_type": "in vivo", "settings": "about 24 hours after dosing", "protocol": "For the purpose of the present invention and the data presented herein, the liver to plasma ratio is calculated by determining the IC90 of a compound and inferring the concentration of the compound in the liver based on the concentration of the compound which causes a 90% decrease in viral load. […] It is known that concentrations of the compounds of Formulae I-XXVI in the liver of rats are about thirty to fifty times greater than plasma concentrations, whereas concentrations in the brain are below detection. In monkeys, concentration of the compound of Formula Ia determined by non-GLP assay of plasma sample taken about 24 hours after dosing of the compound was about five times greater in the liver than in plasma."}}, "data": [{"smiles": "CC(C)(C)NC(=O)N[C@H](C(=O)N1C[C@H]2[C@@H]([C@H]1C(=O)NC(CC1CCC1)C(=O)C(N)=O)C2(C)C)C(C)(C)C", "note": "(mixture of isomers) [Formula Ia, (1R,5S)-N-[3-Amino-1-(Cyclobutylmethyl)-2,3-Dioxopropyl]-3-[2(S)-[[[(1,1-Dimethylethyl)Amino]Carbonyl]Amino]-3,3-Dimethyl-1-Oxobutyl]-6,6-Dimethyl-3-Azabicyclo[3.1.0]Hexan-2(S)-Carboxamide]", "values": [{"measurement": "apparent mean Vd/F, fed versus fasted (times lower)", "setting": "[1]; 600 mg oral", "result": "about five"}, {"measurement": "safety profile", "setting": "[1]; 600 mg oral dose, fed and fasted states", "result": "low frequency of treatment emergent and treatment related AEs"}, {"measurement": "delay of median Tmax, fed versus fasted", "setting": "[1]; 600 mg single oral dose", "result": "approximately three"}, {"measurement": "median concentration at 8 hours, fed relative to fasted", "setting": "[1]; 600 mg single oral dose", "result": "more than 4 fold"}, {"measurement": "median concentration at 12 hours, fed relative to fasted", "setting": "[1]; 600 mg single oral dose", "result": 2, "unit": "fold"}, {"measurement": "AUC(I)", "setting": "[1]; 600 mg single oral dose, fed, mean, n=19", "result": 3697, "unit": "ng·h/mL"}, {"measurement": "AUC(l) ratio estimate, fed to fasted", "setting": "[1]; 600 mg, female, n=10", "result": 225, "unit": "%"}, {"measurement": "AUC(tf) ratio estimate, fed to fasted", "setting": "[1]; 600 mg, female, n=10", "result": 229, "unit": "%"}, {"measurement": "Cmax ratio estimate, fed to fasted", "setting": "[1]; 600 mg, female, n=10", "result": 170, "unit": "%"}, {"measurement": "increase of relative (oral) bioavailability (AUC) in the fed state", "setting": "[1]; 600 mg, high-fat meal relative to fasted", "result": "over 100%"}, {"measurement": "AUC(l) ratio estimate, fed to fasted", "setting": "[1]; 600 mg, male, n=10", "result": 202, "unit": "%"}, {"measurement": "AUC(tf) ratio estimate, fed to fasted", "setting": "[1]; 600 mg, male, n=10", "result": 205, "unit": "%"}, {"measurement": "Cmax ratio estimate, fed to fasted", "setting": "[1]; 600 mg, male, n=10", "result": 155, "unit": "%"}, {"measurement": "AUC(l) ratio estimate, fed to fasted", "setting": "[1]; 600 mg, n=20", "result": 214, "unit": "%"}, {"measurement": "AUC(tf) ratio estimate, fed to fasted", "setting": "[1]; 600 mg, n=20", "result": 217, "unit": "%"}, {"measurement": "Cmax ratio estimate, fed to fasted", "setting": "[1]; 600 mg, n=20", "result": 162, "unit": "%"}, {"measurement": "absorption lag time in the fed state vs the fasted state", "setting": "[1]; in 12 of the 20 subjects who completed both periods", "result": "> 0.5", "unit": "h"}, {"measurement": "virus level in serum", "setting": "[2]", "result": "< 100", "unit": "copies/ml"}, {"measurement": "dose dependence of antiviral activity", "setting": "[3]; 100 mg BID, 200 mg BID, 400 mg BID, all subjects", "result": "antiviral activity increased in a dose-related manner"}, {"measurement": "viral load reduction from baseline, average minimum reduction", "setting": "[3]; 14 days, genotype 1 interferon non responders", "result": 2, "unit": "logs"}, {"measurement": "concentration in liver relative to plasma", "setting": "[4]", "result": "about five"}]}]}
